Experimental data from patent US20150184166A1 (Uinversity of Iowa Research Foundation, priority 2012, published 2015).
Where “and” joins values, the source holds several entries; their conditions need not be identical. Equal entries are not always repeated. Where two headings read alike, the source gives them in different places.

How the values were obtained:
[1] = target: T1, NdmA-His6 (Pseudomonas putida, UniProt H9N289); experiment: Kinetic parameters of NdmA-His6 with His6-NdmD; type: biochemical, Pseudomonas putida CBB5; conditions: for Km / kcat: NdmA-His6 plus His6-NdmD, pH 7.5, 30° C.
T1 sequence (H9N289 1-351): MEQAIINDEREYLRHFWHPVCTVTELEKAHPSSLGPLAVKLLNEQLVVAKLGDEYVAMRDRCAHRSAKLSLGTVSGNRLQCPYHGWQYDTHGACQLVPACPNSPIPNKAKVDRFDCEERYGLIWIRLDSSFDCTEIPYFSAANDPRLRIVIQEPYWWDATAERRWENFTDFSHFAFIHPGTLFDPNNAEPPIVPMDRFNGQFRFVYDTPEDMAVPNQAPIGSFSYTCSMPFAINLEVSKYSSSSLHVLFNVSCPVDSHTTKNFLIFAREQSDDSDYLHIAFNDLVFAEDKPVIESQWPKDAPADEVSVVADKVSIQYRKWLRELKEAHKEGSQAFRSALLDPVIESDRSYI
Protocol: (§1) Methylxanthine N-demethylase activity assay contained, in 1-ml total volume, 0.5 mM methylxanthine, 1 mM NADH, 50 μM Fe(NH4)2(SO4)2, and an appropriate amount of NdmA-His6 or NdmB-His6 (7.4 μg-2.5 mg protein depending on substrate specificity) in 50 mM KPi buffer (pH 7.5). Approximately 4 U of partially purified reductase, prepared as described previously (Summers et al., 2011) or 59 U of purified His6-NdmD was added to reaction mixture. Catalase from bovine liver (4,000 U) was also added to reactions containing His6-NdmD. The reaction mixture was incubated at 30° C. with 300 rpm shaking on an incubating microplate shaker (VWR, Radnor, Pa.). Periodically, a small aliquot was sampled from the reaction mixture and mixed with equal volume of acetonitrile for quantifying concentrations of methylxanthines and N-demethylated products by HPLC. One unit of N-demethylase activity was defined as the consumption of one […] methylxanthine per minute.
(§2) Apparent kinetic parameters of NdmA-His6 and NdmB-His6 were determined by measuring the initial rate of disappearance (vo) of methylxanthines in 50 mM KPi buffer (pH 7.5) at 30° C. The initial substrate concentrations ([S]) used in these experiments were from 25 to 500 μM. Substrates were incubated with His6-NdmD plus either NdmA-His6 or NdmB-His6 under standard conditions for 15 minutes. At 1, 5, 10, and 15 minutes, samples were removed from the reaction mixtures to quantitate substrate concentrations by HPLC. Plots of substrate concentrations against time were used to determine the initial rates of disappearance of substrates which were linear over 15 minutes. The apparent kinetic parameters were determined from Michaelis-Menten plots of vo against [S] fitted with the equation

[2] = target: NdmB-His6 (Pseudomonas putida, UniProt H9N290); experiment: Kinetic parameters of NdmB-His6 with His6-NdmD; type: biochemical, Pseudomonas putida CBB5; conditions: for kcat / Km: NdmB-His6 plus His6-NdmD, pH 7.5, 30° C.
Protocol: as §1, §2

[3] = tested on: cell extracts of P. putida CBB5; experiment: NADH-dependent N-demethylase activity of CBB5 cell extracts; type: biochemical, Pseudomonas putida CBB5; conditions: 0.5 mM substrate, 7.2 mg mL^−1 protein
[4] = target: T2, Caffeine dehydrogenase (Cdh) (Pseudomonas sp., UniProt D7REY3); conditions: cited from earlier work
T2 sequence (D7REY3 1-791): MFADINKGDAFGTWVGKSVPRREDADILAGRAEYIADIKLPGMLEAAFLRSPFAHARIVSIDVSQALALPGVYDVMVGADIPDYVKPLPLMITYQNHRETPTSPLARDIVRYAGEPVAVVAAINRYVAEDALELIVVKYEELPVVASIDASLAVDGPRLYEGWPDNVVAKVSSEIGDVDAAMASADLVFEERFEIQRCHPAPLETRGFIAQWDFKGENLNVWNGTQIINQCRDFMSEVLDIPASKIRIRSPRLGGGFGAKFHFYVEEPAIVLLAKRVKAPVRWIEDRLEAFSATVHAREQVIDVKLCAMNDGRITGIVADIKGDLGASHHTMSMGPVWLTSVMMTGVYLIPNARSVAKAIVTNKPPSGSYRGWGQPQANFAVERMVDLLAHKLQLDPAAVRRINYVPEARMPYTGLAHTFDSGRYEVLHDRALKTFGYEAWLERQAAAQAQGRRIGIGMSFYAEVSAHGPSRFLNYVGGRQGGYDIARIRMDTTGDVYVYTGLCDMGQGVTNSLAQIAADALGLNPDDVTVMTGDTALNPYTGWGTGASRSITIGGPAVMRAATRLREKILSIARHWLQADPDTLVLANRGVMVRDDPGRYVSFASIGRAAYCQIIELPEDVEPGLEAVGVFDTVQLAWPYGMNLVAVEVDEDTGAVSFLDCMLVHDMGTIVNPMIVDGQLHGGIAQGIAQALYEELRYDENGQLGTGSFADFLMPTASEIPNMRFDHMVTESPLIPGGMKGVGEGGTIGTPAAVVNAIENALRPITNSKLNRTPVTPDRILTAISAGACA
T2 sequence (D7REY4 1-295 partner): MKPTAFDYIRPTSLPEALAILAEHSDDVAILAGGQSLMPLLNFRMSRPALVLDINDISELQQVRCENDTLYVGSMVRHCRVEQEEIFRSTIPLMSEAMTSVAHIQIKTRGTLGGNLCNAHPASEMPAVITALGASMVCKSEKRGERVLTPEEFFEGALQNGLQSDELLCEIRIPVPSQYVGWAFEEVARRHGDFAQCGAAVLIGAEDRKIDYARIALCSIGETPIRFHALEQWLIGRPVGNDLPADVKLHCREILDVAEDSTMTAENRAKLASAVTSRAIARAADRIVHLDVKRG
T2 sequence (D7REY5 1-167 partner): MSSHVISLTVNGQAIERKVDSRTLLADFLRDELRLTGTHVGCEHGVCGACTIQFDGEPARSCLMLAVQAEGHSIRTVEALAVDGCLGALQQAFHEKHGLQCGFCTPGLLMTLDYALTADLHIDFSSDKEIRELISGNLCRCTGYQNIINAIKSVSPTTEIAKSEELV

[5] = target: Ndm (methylxanthine N-demethylase) with Ccr reductase (Pseudomonas putida, UniProt H9N289+H9N290); conditions: for O-demethylation by Ndm: prolonged incubation
[6] = tested on: Ndm (methylxanthine N-demethylase) with Ccr reductase
[7] = tested on: NdmC; experiment: N-demethylation by NdmC fraction co-purified with reductase; type: biochemical, Pseudomonas putida CBB5
From the text: This activity was neither associated with NdmA nor with NdmB. […] Cloning of NdmC has proven difficult; nevertheless based on the fact that purified His6-NdmD had no activity on 7-methylxanthine, we annotate orf 8 as aanother RO with highly specific N-7 demthylase activity.

[8] = target: T3, Ndm, two-subunit N-demethylase component purified from Pseudomonas putida CBB5, H9N289
T3 chain 1: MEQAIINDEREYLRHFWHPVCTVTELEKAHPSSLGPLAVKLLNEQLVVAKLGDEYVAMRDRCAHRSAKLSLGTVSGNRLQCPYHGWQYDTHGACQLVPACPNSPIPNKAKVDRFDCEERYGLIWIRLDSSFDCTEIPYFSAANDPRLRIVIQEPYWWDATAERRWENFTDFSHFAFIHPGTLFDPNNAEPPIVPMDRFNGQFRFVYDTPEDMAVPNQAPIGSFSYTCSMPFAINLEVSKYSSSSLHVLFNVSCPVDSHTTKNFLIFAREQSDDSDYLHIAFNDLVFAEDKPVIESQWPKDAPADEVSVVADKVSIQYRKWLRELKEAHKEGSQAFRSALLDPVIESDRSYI
T3 chain 2: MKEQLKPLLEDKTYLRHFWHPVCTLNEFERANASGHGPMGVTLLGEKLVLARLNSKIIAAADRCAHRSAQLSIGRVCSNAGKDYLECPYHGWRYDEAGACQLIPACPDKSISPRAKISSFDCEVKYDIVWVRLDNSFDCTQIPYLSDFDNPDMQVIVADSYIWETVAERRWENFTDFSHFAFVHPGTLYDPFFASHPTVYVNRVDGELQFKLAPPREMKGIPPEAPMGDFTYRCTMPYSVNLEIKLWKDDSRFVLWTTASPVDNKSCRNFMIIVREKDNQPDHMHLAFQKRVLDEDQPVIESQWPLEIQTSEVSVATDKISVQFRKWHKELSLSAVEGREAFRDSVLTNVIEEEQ

Cn1c(=O)[nH]c(=O)c2[nH]cnc21 [3-Methylxanthine, 3-methylxanthine]
N-demethylation activity of NdmA [1]: inactive | Km [1]: ∞ | kcat [2]: 0.528 s⁻¹ | Km ([2]; read-out: Km): 22.4 µM

Cn1c(=O)c2[nH]cnc2n(C)c1=O [Theophylline, 1,3-dimethylxanthine]
kcat [2]: 0.0045 s⁻¹ | Km ([2]; read-out: Km): 169 µM | degradation rate compared with paraxanthine [3]: significantly slower | activity of Cdh [4]: no activity | activity of Cdh in substrate specificity study [4]: 5%

COc1cc(C=O)ccc1O [vanillin]
O-demethylation by Ndm [5]: did not catalyze O-demethylation

O=c1[nH]c(=O)c2[nH]cnc2[nH]1 [xanthine]
product formed from paraxanthine ([6]; 90 minutes, 7.4 mU (7.4 units) of Ndm): 193.7 ± 4.0 µM and 193.7 ± 14.0 µM | N-demethylation product present ([6]; from paraxanthine, after 13 minutes): ~20.3 µM | activity of Cdh [4]: no activity | activity of Cdh in substrate specificity study [4]: none

Cn1cnc2c1c(=O)[nH]c(=O)n2C [Theobromine, 3,7-dimethylxanthine]
N-demethylation activity of NdmA [1]: inactive | Km [1]: ∞ | kcat [2]: 0.772 s⁻¹ | Km ([2]; read-out: Km): 25.3 µM | N-demethylation by NdmC/reductase fraction [7]: not N-demethylated | degradation rate compared with paraxanthine [3]: significantly slower | Preference as a substrate, times less than caffeine [4]: 50 times

Cn1c(=O)[nH]c2ncn(C)c2c1=O [Paraxanthine, 1,7-dimethylxanthine]
kcat [1]: 2.215 s⁻¹ | Km ([1]; read-out: Km): 52.9 µM | N-demethylation activity of NdmB [2]: no activity | Km [2]: ∞ | N-demethylation by NdmC/reductase fraction [7]: not N-demethylated | time to complete utilization ([3]; 0.5 mM NADH): about 20 minutes | paraxanthine N-demethylated ([5]; after 13 minutes, 100 μM paraxanthine, 0.2 mg Ndm, 4 U Ccr): 60.2 µM | Km ([6]; read-out: apparent KM, saturating Ccr, 50 μM Fe2+, 30° C., 50 mM KPi pH 7.5): 50.4 ± 6.8 µM | apparent kcat ([6]; saturating Ccr, 50 μM Fe2+, 30° C., 50 mM KPi pH 7.5): 0.27 ± 0.01 s⁻¹

COc1cc(C(=O)O)ccc1O [vanillate]
O-demethylation by Ndm [5]: did not catalyze O-demethylation

Cn1c(=O)c2c(ncn2C)n(C)c1=O [Caffeine, 1,3,7-trimethylxanthine]
kcat [1]: 3.205 s⁻¹ | Km ([1]; read-out: Km): 37.6 µM | kcat [2]: 0.00383 s⁻¹ | Km ([2]; read-out: Km): 41.7 µM | N-demethylation by NdmC/reductase fraction [7]: not N-demethylated | degradation rate compared with paraxanthine [3]: significantly slower | Km ([4]; Yu et al., 2008): 3.7 ± 0.9 µM

Cn1c(=O)[nH]c2nc[nH]c2c1=O [1-methylxanthine]
kcat [1]: 0.26 s⁻¹ | Km ([1]; read-out: Km): 267 µM | N-demethylation activity of NdmB [2]: no activity | Km [2]: ∞

B1: Spinach ferredoxin reductase (protein)
chain: QIASDVEAPPPAPAKVEKHSKKMEEGITVNKFKPKTPYVGRCLLNTKITGDDAPGETWHMVFSHEGEIPYREGQSVGVIPDGEDKNGKPHKLRLYSIASSALGDFGDAKSVSLCVKRLIYTNDAGETIKGVCSNFLCDLKPGAEVKLTGPVGKEMLMPKDPNATIIMLGTGTGIAPFRSFLWKMFFEKHDDYKFNGLAWLFLGVPTSSSLLYKEEFEKMKEKAPDNFRLDFAVSREQTNEKGEKMYIQTRMAQYAVELWEMLKKDNTYFYMCGLKGMEKGIDDIMVSLAAAEGIDWIEYKRQLKKAEQWNVEVY
N-demethylase activity [8]: Ndm did not couple with ferredoxin reductase plus ferredoxin from spinach

B2: Reductase component of Pseudomonas sp. 9816 naphthalene dioxygenase (protein)
chain: MELLIQPNNRIIPFSAGANLLEVLRENGVAISYSCLSGRCGTCRCRVIDGSVIDSGAENGQSNLTDKQYVLACQSVLTGNCAIEVPEADEIVTHPARIIKGTVVAVESPTHDIRRLRVRLSKPFEFSPGQYATLQFSPEHARPYSMAGLPDDQEMEFHIRKVPGGRVTEYVFEHVREGTSIKLSGPLGTAYLRQKHTGPMLCVGGGTGLAPVLSIVRGALKSGMTNPILLYFGVRSQQDLYDAERLHKLAADHPQLTVHTVIATGPINEGQRAGLITDVIEKDILSLAGWRAYLCGAPAMVEALCTVTKHLGISPEHIYADAFYPGGI
N-demethylase activity [8]: Ndm did not function in the presence of the reductase and ferredoxin components of Pseudomonas sp. 9816 naphthalene dioxygenase
